Results as given in patent US20250122219A1 (priority 2023, published 2025).
Where two headings read alike, the source gives them in different places.

Tests used:
[1] = Cytotoxicity assay in MT-4 cells; type: cell-based; details: human; uninfected MT-4 cells, 5 days incubation, Cell Titer Glo; read-out: MT4 CC50
Outline: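 Viability read by Cell Titer Glo luminescence after 5 days at 37 °C. MT-4 cells, not infected, in complete RPMI (10% FBS), received compound dilution series. Base cytotoxicity set with […] puromycin.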

HIV-1 (IIIB) = assay: Antiviral assay in MT-4 cells; type: cell-based
Outline: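 Read-out: CellTiter-Glo luminescence after 5 days at 37 °C, reflecting survival of MT-4 cells infected with HIV-1 IIIB (1:250 fresh stock dilution) versus mock-infected. Compounds serially diluted into RPMI with 10% FBS; AZT at 5 μM served as positive control.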

[2] = Human immunodeficiency virus 1, MT4, 120 h, HIV-1 IIIB in MT-4 cells, 5 days incubation, Cell Titer Glo, read-out: MT4 EC50

CCCCCCCCOC(=O)OCOc1c2n(cc(C(=O)NCc3ccc(F)cc3F)c1=O)[C@@H]1CN(C2=O)[C@@H](C)CC[C@]12CC(C)=NO2 [Example 178, (((3′S,5S,7′R)-10′-((2,4-difluorobenzyl)carbamoyl)-3,3′-dimethyl-1′,11′-dioxo-1′,4′,5′,11′-tetrahydro-3′H,4H,7′H-spiro[isoxazole-5,6′-[2,7]methanopyrido[1,2-a][1,4]diazonin]-12′-yl)oxy)methyl octyl carbonate]
CC50 at 5 days [1]: 15800 nM
EC50 (HIV-1 (IIIB); Human immunodeficiency virus 1, IIIB, MT4, 120 h, read-out: MT4 EC50 (nM)): 2.64 nM

CCCCCOC(=O)OCOc1c2n(cc(C(=O)NCc3ccc(F)cc3F)c1=O)[C@@H]1CN(C2=O)[C@@H](C)CC[C@]12CC(C)=NO2 [Example 179, (((3′S,5S,7′R)-10′-((2,4-difluorobenzyl)carbamoyl)-3,3′-dimethyl-1′,11′-dioxo-1′,4′,5′,11′-tetrahydro-3′H,4H,7′H-spiro[isoxazole-5,6′-[2,7]methanopyrido[1,2-a][1,4]diazonin]-12′-yl)oxy)methyl pentyl carbonate]
CC50 at 5 days [1]: ≥ 50000 nM
EC50 (HIV-1 (IIIB); [2]): 0.527 nM

CCCCCOC(=O)OCOc1c2n(cc(C(=O)NCc3ccc(F)cc3F)c1=O)[C@@H]1CN(C2=O)[C@@H](C)CC[C@]12CC(OC)=NO2 [Example 180, (((3′S,5S,7′R)-10′-((2,4-difluorobenzyl)carbamoyl)-3-methoxy-3′-methyl-1′,11′-dioxo-1′,4′,5′,11′-tetrahydro-3′H,4H,7′H-spiro[isoxazole-5,6′-[2,7]methanopyrido[1,2-a][1,4]diazonin]-12′-yl)oxy)methyl pentyl carbonate]
CC50 at 5 days [1]: ≥ 50000 nM
EC50 (HIV-1 (IIIB); [2]): 0.274 nM

CCCCCCOC(=O)OCOc1c2n(cc(C(=O)NCc3ccc(F)cc3F)c1=O)[C@@H]1CN(C2=O)[C@@H](C)CC[C@]12CC(C)=NO2 [Example 181, (((3′S,5S,7′R)-10′-((2,4-difluorobenzyl)carbamoyl)-3,3′-dimethyl-1′,11′-dioxo-1′,4′,5′,11′-tetrahydro-3′H,4H,7′H-spiro[isoxazole-5,6′-[2,7]methanopyrido[1,2-a][1,4]diazonin]-12′-yl)oxy)methyl hexyl carbonate]
CC50 at 5 days [1]: 14700 nM
EC50 (HIV-1 (IIIB); [2]): 0.262 nM

CCCCCCOC(=O)OCOc1c2n(cc(C(=O)NCc3ccc(F)cc3F)c1=O)[C@@H]1CN(C2=O)[C@@H](C)CC[C@]12CC(OC)=NO2 [Example 182, (((3′S,5S,7′R)-10′-((2,4-difluorobenzyl)carbamoyl)-3-methoxy-3′-methyl-1′,11′-dioxo-1′,4′,5′,11′-tetrahydro-3′H,4H,7′H-spiro[isoxazole-5,6′-[2,7]methanopyrido[1,2-a][1,4]diazonin]-12′-yl)oxy)methyl hexyl carbonate]
CC50 at 5 days [1]: 47900 nM
EC50 (HIV-1 (IIIB); [2]): 0.29 nM

CCCCCCCOC(=O)OCOc1c2n(cc(C(=O)NCc3ccc(F)cc3F)c1=O)[C@@H]1CN(C2=O)[C@@H](C)CC[C@]12CC(C)=NO2 [Example 183, (((3′S,5S,7′R)-10′-((2,4-difluorobenzyl)carbamoyl)-3,3′-dimethyl-1′,11′-dioxo-1′,4′,5′,11′-tetrahydro-3′H,4H,7′H-spiro[isoxazole-5,6′-[2,7]methanopyrido[1,2-a][1,4]diazonin]-12′-yl)oxy)methyl heptyl carbonate]
CC50 at 5 days [1]: 11400 nM
EC50 (HIV-1 (IIIB); [2]): 0.358 nM

CCCCCCCOC(=O)OCOc1c2n(cc(C(=O)NCc3ccc(F)cc3F)c1=O)[C@@H]1CN(C2=O)[C@@H](C)CC[C@]12CC(OC)=NO2 [Example 184, (((3′S,5S,7′R)-10′-((2,4-difluorobenzyl)carbamoyl)-3-methoxy-3′-methyl-1′,11′-dioxo-1′,4′,5′,11′-tetrahydro-3′H,4H,7′H-spiro[isoxazole-5,6′-[2,7]methanopyrido[1,2-a][1,4]diazonin]-12′-yl)oxy)methyl heptyl carbonate]
CC50 at 5 days [1]: 9980 nM
EC50 (HIV-1 (IIIB); [2]): 0.441 nM

CCCCCCCCOC(=O)OCOc1c2n(cc(C(=O)NCc3ccc(F)cc3F)c1=O)[C@@H]1CN(C2=O)[C@@H](C)CC[C@]12CC(OC)=NO2 [Example 185, (((3′S,5S,7′R)-10′-((2,4-difluorobenzyl)carbamoyl)-3-methoxy-3′-methyl-1′,11′-dioxo-1′,4′,5′,11′-tetrahydro-3′H,4H,7′H-spiro[isoxazole-5,6′-[2,7]methanopyrido[1,2-a][1,4]diazonin]-12′-yl)oxy)methyl octyl carbonate]
CC50 at 5 days [1]: ≥ 50000 nM
EC50 (HIV-1 (IIIB); [2]): 5.14 nM

CCCCCCCCCOC(=O)OCOc1c2n(cc(C(=O)NCc3ccc(F)cc3F)c1=O)[C@@H]1CN(C2=O)[C@@H](C)CC[C@]12CC(C)=NO2 [Example 186, (((3′S,5S,7′R)-10′-((2,4-difluorobenzyl)carbamoyl)-3,3′-dimethyl-1′,11′-dioxo-1′,4′,5′,11′-tetrahydro-3′H,4H,7′H-spiro[isoxazole-5,6′-[2,7]methanopyrido[1,2-a][1,4]diazonin]-12′-yl)oxy)methyl nonyl carbonate]
CC50 at 5 days [1]: ≥ 50000 nM
EC50 (HIV-1 (IIIB); [2]): 2.24 nM

CCCCCCCCCOC(=O)OCOc1c2n(cc(C(=O)NCc3ccc(F)cc3F)c1=O)[C@@H]1CN(C2=O)[C@@H](C)CC[C@]12CC(OC)=NO2 [Example 187, (((3′S,5S,7′R)-10′-((2,4-difluorobenzyl)carbamoyl)-3-methoxy-3′-methyl-1′,11′-dioxo-1′,4′,5′,11′-tetrahydro-3′H,4H,7′H-spiro[isoxazole-5,6′-[2,7]methanopyrido[1,2-a][1,4]diazonin]-12′-yl)oxy)methyl nonyl carbonate]
CC50 at 5 days [1]: 43900 nM
EC50 (HIV-1 (IIIB); [2]): 3.25 nM

CCCCCCCCCCOC(=O)OCOc1c2n(cc(C(=O)NCc3ccc(F)cc3F)c1=O)[C@@H]1CN(C2=O)[C@@H](C)CC[C@]12CC(C)=NO2 [Example 188, decyl ((((3′S,5S,7′R)-10′-((2,4-difluorobenzyl)carbamoyl)-3,3′-dimethyl-1′,11′-dioxo-1′,4′,5′,11′-tetrahydro-3′H,4H,7′H-spiro[isoxazole-5,6′-[2,7]methanopyrido[1,2-a][1,4]diazonin]-12′-yl)oxy)methyl) carbonate]
CC50 at 5 days [1]: 38500 nM
EC50 (HIV-1 (IIIB); [2]): 1.55 nM

CCCCCCCCCCOC(=O)OCOc1c2n(cc(C(=O)NCc3ccc(F)cc3F)c1=O)[C@@H]1CN(C2=O)[C@@H](C)CC[C@]12CC(OC)=NO2 [Example 189, decyl ((((3′S,5S,7′R)-10′-((2,4-difluorobenzyl)carbamoyl)-3-methoxy-3′-methyl-1′,11′-dioxo-1′,4′,5′,11′-tetrahydro-3′H,4H,7′H-spiro[isoxazole-5,6′-[2,7]methanopyrido[1,2-a][1,4]diazonin]-12′-yl)oxy)methyl) carbonate]
CC50 at 5 days [1]: ≥ 50000 nM
EC50 (HIV-1 (IIIB); [2]): 3.54 nM

CCCCCCCCCCCCOC(=O)OCOc1c2n(cc(C(=O)NCc3ccc(F)cc3F)c1=O)[C@@H]1CN(C2=O)[C@@H](C)CC[C@]12CC(C)=NO2 [Example 190, (((3′S,5S,7′R)-10′-((2,4-difluorobenzyl)carbamoyl)-3,3′-dimethyl-1′,11′-dioxo-1′,4′,5′,11′-tetrahydro-3′H,4H,7′H-spiro[isoxazole-5,6′-[2,7]methanopyrido[1,2-a][1,4]diazonin]-12′-yl)oxy)methyl dodecyl carbonate]
CC50 at 5 days [1]: ≥ 50000 nM
EC50 (HIV-1 (IIIB); [2]): 0.495 nM

CCCCCCCCCCCCOC(=O)OCOc1c2n(cc(C(=O)NCc3ccc(F)cc3F)c1=O)[C@@H]1CN(C2=O)[C@@H](C)CC[C@]12CC(OC)=NO2 [Example 191, (((3′S,5S,7′R)-10′-((2,4-difluorobenzyl)carbamoyl)-3-methoxy-3′-methyl-1′,11′-dioxo-1′,4′,5′,11′-tetrahydro-3′H,4H,7′H-spiro[isoxazole-5,6′-[2,7]methanopyrido[1,2-a][1,4]diazonin]-12′-yl)oxy)methyl dodecyl carbonate]
CC50 at 5 days [1]: ≥ 50000 nM
EC50 (HIV-1 (IIIB); [2]): 1.67 nM

CCCCCCCCCCCCCCCCOC(=O)OCOc1c2n(cc(C(=O)NCc3ccc(F)cc3F)c1=O)[C@@H]1CN(C2=O)[C@@H](C)CC[C@]12CC(C)=NO2 [Example 194, (((3′S,5S,7′R)-10′-((2,4-difluorobenzyl)carbamoyl)-3,3′-dimethyl-1′,11′-dioxo-1′,4′,5′,11′-tetrahydro-3′H,4H,7′H-spiro[isoxazole-5,6′-[2,7]methanopyrido[1,2-a][1,4]diazonin]-12′-yl)oxy)methyl hexadecyl carbonate]
CC50 at 5 days [1]: ≥ 50000 nM
EC50 (HIV-1 (IIIB); [2]): 16.7 nM

CCCCCCCCCCCCCCCCOC(=O)OCOc1c2n(cc(C(=O)NCc3ccc(F)cc3F)c1=O)[C@@H]1CN(C2=O)[C@@H](C)CC[C@]12CC(OC)=NO2 [Example 195, (((3′S,5S,7′R)-10′-((2,4-difluorobenzyl)carbamoyl)-3-methoxy-3′-methyl-1′,11′-dioxo-1′,4′˜5′,11′-tetrahydro-3′H,4H,7′H-spiro[isoxazole-5,6′-[2,7]methanopyrido[1,2-a][1,4]diazonin]-12′-yl)oxy)methyl hexadecyl carbonate]
CC50 at 5 days [1]: ≥ 50000 nM
EC50 (HIV-1 (IIIB); [2]): 33.5 nM

CCCCCCCCCCCCCCCCCCOC(=O)OCOc1c2n(cc(C(=O)NCc3ccc(F)cc3F)c1=O)[C@@H]1CN(C2=O)[C@@H](C)CC[C@]12CC(C)=NO2 [Example 196, (((3′S,5S,7′R)-10′-((2,4-difluorobenzyl)carbamoyl)-3,3′-dimethyl-1′,11′-dioxo-1′,4′,5′,11′-tetrahydro-3′H,4H,7′H-spiro[isoxazole-5,6′-[2,7]methanopyrido[1,2-a][1,4]diazonin]-12′-yl)oxy)methyl octadecyl carbonate]
CC50 at 5 days [1]: ≥ 50000 nM
EC50 (HIV-1 (IIIB); [2]): 18.4 nM
